For assay [1], the target named is T1, cystic fibrosis transmembrane conductance regulator (ΔR-CFTR) (Homo sapiens, UniProt P13569, DEL634-836). As to the kind of experiment: excised inside-out patch-clamp. Type of assay: biochemical. Background: In patch-clamp work, channel activity is measured electrically.
Assay [2] addresses T1, cystic fibrosis transmembrane conductance regulator (ΔR-CFTR). As to the kind of experiment: excised inside-out patch-clamp, single-channel Po versus [ATP]. It is filed as biochemical.

T1 sequence (P13569 1-633, stated change not applied): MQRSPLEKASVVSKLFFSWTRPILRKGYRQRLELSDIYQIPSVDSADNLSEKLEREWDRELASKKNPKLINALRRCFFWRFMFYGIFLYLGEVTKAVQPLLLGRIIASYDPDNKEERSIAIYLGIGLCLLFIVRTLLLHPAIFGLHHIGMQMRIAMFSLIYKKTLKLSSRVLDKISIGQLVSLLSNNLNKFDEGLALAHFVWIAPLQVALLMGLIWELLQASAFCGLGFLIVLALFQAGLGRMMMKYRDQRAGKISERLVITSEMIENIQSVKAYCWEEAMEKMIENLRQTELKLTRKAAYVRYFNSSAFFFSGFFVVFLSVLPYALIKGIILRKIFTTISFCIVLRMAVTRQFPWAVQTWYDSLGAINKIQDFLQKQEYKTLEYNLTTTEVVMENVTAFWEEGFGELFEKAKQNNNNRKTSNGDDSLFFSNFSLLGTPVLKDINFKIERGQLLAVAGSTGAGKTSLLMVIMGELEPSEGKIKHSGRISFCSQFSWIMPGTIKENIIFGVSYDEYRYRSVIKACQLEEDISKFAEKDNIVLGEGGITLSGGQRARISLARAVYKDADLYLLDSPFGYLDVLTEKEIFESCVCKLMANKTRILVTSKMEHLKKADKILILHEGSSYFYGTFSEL
T1 sequence (P13569 837-1480, stated change not applied): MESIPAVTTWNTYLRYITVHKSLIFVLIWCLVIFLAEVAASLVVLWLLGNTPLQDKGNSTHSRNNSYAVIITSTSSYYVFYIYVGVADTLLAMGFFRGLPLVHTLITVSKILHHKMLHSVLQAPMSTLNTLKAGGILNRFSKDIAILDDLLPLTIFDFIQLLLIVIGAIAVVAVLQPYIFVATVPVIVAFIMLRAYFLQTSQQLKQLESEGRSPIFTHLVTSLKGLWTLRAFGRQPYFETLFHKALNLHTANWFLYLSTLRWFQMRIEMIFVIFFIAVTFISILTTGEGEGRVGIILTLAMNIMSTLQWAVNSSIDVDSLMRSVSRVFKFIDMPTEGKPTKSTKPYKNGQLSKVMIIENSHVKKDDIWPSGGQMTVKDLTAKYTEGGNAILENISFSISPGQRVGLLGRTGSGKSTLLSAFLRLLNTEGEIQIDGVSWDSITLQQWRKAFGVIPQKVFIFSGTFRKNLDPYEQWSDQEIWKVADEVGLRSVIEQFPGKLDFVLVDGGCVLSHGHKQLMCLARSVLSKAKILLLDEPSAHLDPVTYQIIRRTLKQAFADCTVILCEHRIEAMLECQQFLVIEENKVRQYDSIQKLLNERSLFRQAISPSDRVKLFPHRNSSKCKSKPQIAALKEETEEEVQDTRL

For orientation: Ki means the equilibrium dissociation constant of an inhibitor or competing ligand from its target. Read a low Ki as tighter binding. `Nc1ncnc2c1ncn2[C@@H]1O[C@H](COP(=O)(O)OP(=O)(O)O)[C@@H](O)[C@H]1O` [ADP]: the Ki in assay [1] was 26.3 ± 5.1 µM.
Broadly, the EC50 is the concentration at which the effect is half-maximal. `Nc1ncnc2c1ncn2[C@@H]1O[C@H](COP(=O)(O)OP(=O)(O)OP(=O)(O)O)[C@@H](O)[C@H]1O` [ATP] registered an EC50 in assay [2] of 89 ± 25 µM.

For the origin of these results see article PMC1382195 (The Journal of General Physiology, 2005).
